Laboratory results published in patent US20220370453A1 (Storm Therapeutics Ltd, priority 2019, published 2022).

Legend:
BCDIN3D [1] = target: T1, BCDIN3D (Homo sapiens, UniProt Q7Z5W3); experiment: BCDIN3D IC50 RFMS (RapidFire) assay with mini-helix; assay type: biochemical; conditions: mini-helix substrate 0.2 μM, SAM 6 μM, 25 nM enzyme
T1 sequence (Q7Z5W3 1-292): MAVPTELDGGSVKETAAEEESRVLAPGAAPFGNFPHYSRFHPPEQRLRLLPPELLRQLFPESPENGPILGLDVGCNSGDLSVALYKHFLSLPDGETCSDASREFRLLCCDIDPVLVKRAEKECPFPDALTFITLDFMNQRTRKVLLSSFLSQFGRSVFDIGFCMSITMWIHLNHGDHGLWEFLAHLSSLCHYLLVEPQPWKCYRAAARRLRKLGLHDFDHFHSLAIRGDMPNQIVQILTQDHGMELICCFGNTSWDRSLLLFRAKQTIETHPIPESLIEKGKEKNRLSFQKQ
How it was run: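 25 nM enzyme preincubated 10 min at room temperature with compound (1% DMSO) in 25 mM Tris pH 8.0, 10 mM DTT, 1 mM EDTA, 0.03% BSA. Reaction started with 0.2 μM mini-helix plus 6 μM SAM, run 1 h at 37 °C, quenched with TCA; SAH product quantified by RapidFire MS against isotopic SAH standards.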

BCDIN3D [2] = target: T1, BCDIN3D; experiment: BCDIN3D InCellPulse thermal stability assay in transfected A549 cells; assay type: cell-based; conditions: transiently transfected A549 cells, heat shock 58° C. 15 min
How it was run: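 A549 cells transiently expressing BCDIN3D N-terminally fused to ePL ProLabel tag, 1500 cells/well, pre-incubated 1 h at 37 °C with compound (0.6% DMSO). Heat shock 58 °C for 15 min; remaining soluble fusion detected by split β-galactosidase complementation luminescence.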

Structure (SMILES)	IC50 (BCDIN3D [1]) [nM]	IC50 (BCDIN3D [2]) [nM]
Cc1nn(C)c2nc(NC[C@H](N)c3ccccc3)nc(NC(C)(C)C)c12 [Compound 4.128, N6-[(2R)-2-amino-2-phenylethyl]-N4-tert-butyl-1,3-dimethyl-1H-pyrazolo[3,4-d]pyrimidine-4,6-diamine]	1010	1290
Cn1ncc2c(NC(C)(C)C)nc(NC[C@H](N)c3ccccc3)nc21 [Compound 4.53, 6-N-[(2R)-2-amino-2-phenylethyl]-4-N-tert-butyl-1-methylpyrazolo[3,4-d]pyrimidine-4,6-diamine]	118	282
CC[C@@H](CN)Nc1nc(NCc2ccc(C)c(Cl)c2)c2cnn(C)c2n1 [Compound 3.05]	1440	1440
Cn1ncc2c(NC3CC(C#N)C3)nc(NC[C@H](N)c3ccccc3)nc21 (stereo partly drawn) [Compound 4.91, 3-[[6-[[(2R)-2-amino-2-phenyl-ethyl]amino]-1-methyl-pyrazolo[3,4-d]pyrimidin-4-yl]amino]cyclobutanecarbonitrile]	129	263
Cn1ncc2c(NC34CC(C3)C4)nc(NC[C@H](N)c3ccccc3)nc21 [Compound 4.66, N6-[(2R)-2-amino-2-phenyl-ethyl]-N4-(3-bicyclo[1.1.1]pentanyl)-1-methyl-pyrazolo[3,4-d]pyrimidine-4,6-diamine]	128	137
Cn1ncc2c(NCC3CCC3)nc(NC[C@H](N)c3ccccc3)nc21 [Compound 4.105, N6-[(2R)-2-amino-2-phenyl-ethyl]-N4-(cyclobutylmethyl)-1-methyl-pyrazolo[3,4-d]pyrimidine-4,6-diamine]	74	144
